# Assay results as given in article PMC4832243, “Discovery of Potent VEGFR-2 Inhibitors based on Furopyrimidine and Thienopyrimidne Scaffolds as Cancer Targeting Agents” (Scientific Reports, 2016).
# How the values were obtained:
# Type in all cases: cell-based
# ACHN = test: NCI 60 cell line panel (SRB), ACHN; conditions: Homo sapiens, Renal Cancer, single dose of 10 μM, read-out: Cell Growth Percent
# SK-OV-3 = test: NCI 60 cell line panel (SRB), SK-OV-3; conditions: Homo sapiens; SK-OV-3, Ovarian Cancer; single dose of 10 μM; read-out: Cell Growth Percent
# PC-3 = test: NCI 60 cell line panel (SRB), PC-3; conditions: Homo sapiens; PC-3, Prostate Cancer; single dose of 10 μM; read-out: Cell Growth Percent
# MOLT-4 = test: NCI 60 cell line panel (SRB), MOLT-4; conditions: Homo sapiens; MOLT-4, Leukemia; single dose of 10 μM; read-out: Cell Growth Percent
# MDA-MB-468 = test: NCI 60 cell line panel (SRB), MDA-MB-468; conditions: Homo sapiens; MDA-MB-468, Breast Cancer; single dose of 10 μM; read-out: Cell Growth Percent
# HOP-92 = test: NCI 60 cell line panel (SRB), HOP-92; conditions: Homo sapiens; HOP-92, Non-Small Cell Lung Cancer; single dose of 10 μM; read-out: Cell Growth Percent
# NCI-H522 = test: NCI 60 cell line panel (SRB), NCI-H522; conditions: Homo sapiens; NCI-H522, Non-Small Cell Lung Cancer; single dose of 10 μM; read-out: Cell Growth Percent
# NCI/ADR-RES = test: NCI 60 cell line panel (SRB), NCI/ADR-RES; conditions: Homo sapiens, Ovarian Cancer, single dose of 10 μM, read-out: Cell Growth Percent
# OVCAR-3 = test: NCI 60 cell line panel (SRB), OVCAR-3; conditions: Homo sapiens; OVCAR-3, Ovarian Cancer; single dose of 10 μM; read-out: Cell Growth Percent
# NCI-H23 = test: NCI 60 cell line panel (SRB), NCI-H23; conditions: Homo sapiens; NCI-H23, Non-Small Cell Lung Cancer; single dose of 10 μM; read-out: Cell Growth Percent
# SNB-75 = test: NCI 60 cell line panel (SRB), SNB-75; conditions: Homo sapiens; SNB-75, CNS Cancer; single dose of 10 μM; read-out: Cell Growth Percent
# SK-MEL-2 = test: NCI 60 cell line panel (SRB), SK-MEL-2; conditions: Homo sapiens; SK-MEL-2, Melanoma; single dose of 10 μM; read-out: Cell Growth Percent
# HS 578T = test: NCI 60 cell line panel (SRB), HS 578T; conditions: Homo sapiens, Breast Cancer, single dose of 10 μM, read-out: Cell Growth Percent
# HCC-2998 = test: NCI 60 cell line panel (SRB), HCC-2998; conditions: Homo sapiens; HCC-2998, Colon Cancer; single dose of 10 μM; read-out: Cell Growth Percent
# IGROV1 = test: NCI 60 cell line panel (SRB), IGROV1; conditions: Homo sapiens, IGROV-1; IGROV1, Ovarian Cancer; single dose of 10 μM; read-out: Cell Growth Percent
# RPMI-8226 = test: NCI 60 cell line panel (SRB), RPMI-8226; conditions: Homo sapiens; RPMI-8226, Leukemia; single dose of 10 μM; read-out: Cell Growth Percent
# OVCAR-5 = test: NCI 60 cell line panel (SRB), OVCAR-5; conditions: Homo sapiens; OVCAR-5, Ovarian Cancer; single dose of 10 μM; read-out: Cell Growth Percent
# M14 = test: NCI 60 cell line panel (SRB), M14; conditions: Homo sapiens; M14, Melanoma; single dose of 10 μM; read-out: Cell Growth Percent
# HT29 = test: NCI 60 cell line panel (SRB), HT29; conditions: Homo sapiens, HT-29; HT29, Colon Cancer; single dose of 10 μM; read-out: Cell Growth Percent
# CAKI-1 = test: NCI 60 cell line panel (SRB), CAKI-1; conditions: Homo sapiens; CAKI-1, Renal Cancer; single dose of 10 μM; read-out: Cell Growth Percent
# OVCAR-8 = test: NCI 60 cell line panel (SRB), OVCAR-8; conditions: Homo sapiens; OVCAR-8, Ovarian Cancer; single dose of 10 μM; read-out: Cell Growth Percent
# NCI-H226 = test: NCI 60 cell line panel (SRB), NCI-H226; conditions: Homo sapiens; NCI-H226, Non-Small Cell Lung Cancer; single dose of 10 μM; read-out: Cell Growth Percent
# 786-0 = test: NCI 60 cell line panel (SRB), 786-0; conditions: Homo sapiens; 786-0, Renal Cancer; single dose of 10 μM; read-out: Cell Growth Percent
# LOX IMVI = test: NCI 60 cell line panel (SRB), LOX IMVI; conditions: Homo sapiens, Melanoma, single dose of 10 μM, read-out: Cell Growth Percent
# UO-31 = test: NCI 60 cell line panel (SRB), UO-31; conditions: Homo sapiens; UO-31, Renal Cancer; single dose of 10 μM; read-out: Cell Growth Percent
# A498 = test: NCI 60 cell line panel (SRB), A498; conditions: Homo sapiens; A498, Renal Cancer; single dose of 10 μM; read-out: Cell Growth Percent
# SR = test: NCI 60 cell line panel (SRB), SR; conditions: Homo sapiens, Leukemia, single dose of 10 μM, read-out: Cell Growth Percent
# HL-60(TB) = test: NCI 60 cell line panel (SRB), HL-60(TB); conditions: Homo sapiens, Leukemia, single dose of 10 μM, read-out: Cell Growth Percent
# TK-10 = test: NCI 60 cell line panel (SRB), TK-10; conditions: Homo sapiens; TK-10, Renal Cancer; single dose of 10 μM; read-out: Cell Growth Percent
# SF-539 = test: NCI 60 cell line panel (SRB), SF-539; conditions: Homo sapiens; SF-539, CNS Cancer; single dose of 10 μM; read-out: Cell Growth Percent
# HCT-15 = test: NCI 60 cell line panel (SRB), HCT-15; conditions: Homo sapiens; HCT-15, Colon Cancer; single dose of 10 μM; read-out: Cell Growth Percent
# CCRF-CEM = test: NCI 60 cell line panel (SRB), CCRF-CEM; conditions: Homo sapiens, Leukemia, single dose of 10 μM, read-out: Cell Growth Percent
# UACC-62 = test: NCI 60 cell line panel (SRB), UACC-62; conditions: Homo sapiens; UACC-62, Melanoma; single dose of 10 μM; read-out: Cell Growth Percent
# BT-549 = test: NCI 60 cell line panel (SRB), BT-549; conditions: Homo sapiens; BT-549, Breast Cancer; single dose of 10 μM; read-out: Cell Growth Percent
Structure (SMILES),activity at 10 µM (ACHN) [%],activity at 10 µM (SK-OV-3) [%],activity at 10 µM (PC-3) [%],activity at 10 µM (MOLT-4) [%],activity at 10 µM (MDA-MB-468) [%],activity at 10 µM (HOP-92) [%],activity at 10 µM (NCI-H522) [%],activity at 10 µM (NCI/ADR-RES) [%],activity at 10 µM (OVCAR-3) [%],activity at 10 µM (NCI-H23) [%],activity at 10 µM (SNB-75) [%],activity at 10 µM (SK-MEL-2) [%],activity at 10 µM (HS 578T) [%],activity at 10 µM (HCC-2998) [%],activity at 10 µM (IGROV1) [%],activity at 10 µM (RPMI-8226) [%],activity at 10 µM (OVCAR-5) [%],activity at 10 µM (M14) [%],activity at 10 µM (HT29) [%],activity at 10 µM (CAKI-1) [%],further results
COc1cccc(NC(=O)Nc2ccc(Oc3ncnc4sc5c(c34)CCCC5)cc2)c1 [Compound 21c],75,78.2,45,46.9,69.3,79,21,70.5,68.3,67.7,50.3,97.3,60.9,102,88.7,46.7,105,67.3,54.8,80.8,activity at 10 µM (OVCAR-8): 89.9%; activity at 10 µM (NCI-H226): 65.1%; activity at 10 µM (786-0): 97.6%; activity at 10 µM (LOX IMVI): 61.5%; activity at 10 µM (UO-31): 52.5%; activity at 10 µM (A498): 67.8%; activity at 10 µM (SR): 50.9%; activity at 10 µM (HL-60(TB)): 106%; activity at 10 µM (TK-10): 73.5%; activity at 10 µM (SF-539): 53%; activity at 10 µM (HCT-15): 67.1%; activity at 10 µM (CCRF-CEM): 64.4%; activity at 10 µM (UACC-62): 70.9%; activity at 10 µM (BT-549): 88.5%
O=C(Nc1ccccc1)Nc1ccc(Nc2ncnc3sc4c(c23)CCCC4)cc1 [Compound 20a],101,99.5,89.8,89.4,96.8,100,92.9,107,103,100,93.3,114,85.3,95.3,107,99.2,119,103,96.1,100,activity at 10 µM (OVCAR-8): 107%; activity at 10 µM (NCI-H226): 89.8%; activity at 10 µM (786-0): 110%; activity at 10 µM (LOX IMVI): 99.4%; activity at 10 µM (UO-31): 71.5%; activity at 10 µM (A498): 83.3%; activity at 10 µM (SR): 97.8%; activity at 10 µM (HL-60(TB)): 97%; activity at 10 µM (TK-10): 124%; activity at 10 µM (SF-539): 104%; activity at 10 µM (HCT-15): 110%; activity at 10 µM (CCRF-CEM): 92.3%; activity at 10 µM (UACC-62): 97.8%; activity at 10 µM (BT-549): 109%
O=C(Nc1ccc(Nc2ncnc3sc4c(c23)CCCC4)cc1)Nc1cccc(Cl)c1 [Compound 20d],99.7,98.6,96,92.3,110,102,92.1,113,110,103,94.4,116,103,103,113,106,108,99.3,87.8,97.2,activity at 10 µM (OVCAR-8): 112%; activity at 10 µM (NCI-H226): 103%; activity at 10 µM (786-0): 103%; activity at 10 µM (LOX IMVI): 103%; activity at 10 µM (UO-31): 90.9%; activity at 10 µM (A498): 86.7%; activity at 10 µM (SR): 102%; activity at 10 µM (HL-60(TB)): 98.9%; activity at 10 µM (TK-10): 108%; activity at 10 µM (SF-539): 90.8%; activity at 10 µM (HCT-15): 104%; activity at 10 µM (CCRF-CEM): 97.7%; activity at 10 µM (UACC-62): 106%; activity at 10 µM (BT-549): 100%
O=C(Nc1ccccc1)Nc1ccc(Oc2ncnc3sc4c(c23)CCCC4)cc1 [Compound 21a],78.7,72.2,33.4,54,53.6,78.4,15.6,63.2,74.9,66.4,45.6,87.6,73.6,89.6,87.2,50.5,107,56.5,74.3,83.4,activity at 10 µM (OVCAR-8): 93.5%; activity at 10 µM (NCI-H226): 66.6%; activity at 10 µM (786-0): 84.8%; activity at 10 µM (LOX IMVI): 69.5%; activity at 10 µM (UO-31): 55.2%; activity at 10 µM (A498): 56.7%; activity at 10 µM (SR): 24.3%; activity at 10 µM (HL-60(TB)): 102%; activity at 10 µM (TK-10): 86.1%; activity at 10 µM (SF-539): 44%; activity at 10 µM (HCT-15): 49.2%; activity at 10 µM (CCRF-CEM): 64.9%; activity at 10 µM (UACC-62): 66.5%; activity at 10 µM (BT-549): 63.8%
